Results on five molecules are retold here after EPA's ToxValDB 9.5.

Series [1] has as its system Cavia porcellus. As to conditions: acute; oral; Guinea Pig.
Series [2] deals with Mus musculus.
For series [3], the system named is Oryctolagus sp. The following applies: for LD50: acute.
Series [4] concerns Rattus norvegicus. The following applies: for LC50 / LD50: acute.
The test system of series [5] is Rattus norvegicus. As to conditions: subchronic, oral.
The subject of series [6] is Canidae. Briefly: LD0; higher = less toxic. The following applies: acute; injection; intravenous; Dog Other.
For series [7], the system named is Cavia porcellus. Briefly: LD0; higher = less toxic. As to conditions: acute; injection; subcutaneous; Guinea Pig.
Series [8] concerns Oryctolagus sp. Briefly: LD0; higher = less toxic. The following applies: acute; dermal.
The subject of series [9] is Rattus norvegicus. Briefly: LD0; higher = less toxic. As to conditions: acute; injection; subcutaneous.
Series [10] relates to Mus musculus. Briefly: LD100; higher = less toxic. As to conditions: acute.
The next series deals with Sus scrofa. The following applies: subchronic; duration: 90 days; oral; diet; M/F; Not specified; Urinary, Hepatic.
Series [11] relates to Rattus norvegicus. Briefly: LC10; higher = less toxic. The following applies: acute; inhalation; Sprague-Dawley.
In series [12] the test system is Oryctolagus sp. Briefly: LD40; higher = less toxic. As to conditions: acute; dermal; occlusive; New Zealand.
In series [13] the test system is Canidae. As to conditions: chronic; oral; diet; M/F; Dog Other; rbc and plasma cholinesterase inhibition, and testicular and uterine effects.
Series [14] relates to Rattus norvegicus. As to conditions: Hershberger; duration: 10 days; oral; gavage; Sprague-Dawley; inactive + Negative + Negative + neither + negative.
Series [15] relates to Canidae. The following applies: chronic; duration: 1 years; oral; diet; Dog Other; Blood: Cholinesterase inhibition + Testis: Effects + Uterus: Effects.
The subject of series [16] is Rattus norvegicus. The series can be described thus: LD40; higher = less toxic. The following applies: acute; oral; gavage; Sprague-Dawley.
Setting [17] is: subchronic, duration: 13 weeks, oral, diet, B6C3F1.
Where [18] appears, read: subchronic, duration: 13 weeks, oral, diet, Fischer 344.
[19] abbreviates: gavage, M, Sprague-Dawley, Clinical Observation: Salivation (transient) + Functional Observational Battery: Salivation Spontaneous motor activity (total ambulatory ….

In brackets after ≈: the same amount, converted by molar mass. Several values for one entry are separate records, joined by “and”; a condition that tells them apart may be missing. Equal values may be shown once.

For `NC(=Nc1ccccc1)Nc1ccccc1` [1,3-Diphenylguanidine], the LD50 in the series on Cavia porcellus [1] was 250 mg/kg; with Mus musculus [2] (acute, injection, Intraperitoneal) it was 75 mg/kg and ≥ 25 mg/kg and ≤ 50 mg/kg; in the series with Oryctolagus sp. [3] (oral) it was 250 mg/kg and 246 mg/kg. For the same molecule, the NOAEL in the series on Mus musculus [2] (developmental, duration: 19 days, oral, gavage, ICR) was ≥ 10 mg/kg-day; with Mus musculus [2] (reproduction developmental, duration: 8 weeks, oral, gavage, CD1, generation: F0), ≥ 16 mg/kg-day; in the series on Mus musculus [2] (reproduction developmental, duration: 19 days, oral, gavage, F, ICR) it was 4 mg/kg-day; with Mus musculus [2] (setting [17]), 98.5 mg/kg-day; with Rattus norvegicus [4] (developmental, duration: 10 days, oral, gavage, Sprague-Dawley), 25 mg/kg-day; in the series with Rattus norvegicus [4] (reproduction developmental, duration: 13 weeks, oral, diet, Fischer 344, generation: F0), 750 ppm. For the same molecule, the NOAEL is 5 mg/kg-day and 10 mg/kg-day with Rattus norvegicus [4] (reproduction developmental, duration: 10 days, oral, gavage, F, Sprague-Dawley); 100 ppm in the series with Rattus norvegicus [4] (short-term, duration: 28 days, oral, diet); 48 mg/kg-day in the series with Rattus norvegicus [4] (setting [18]); 14.4 mg/kg-day in the series on Rattus norvegicus [4] (subchronic, duration: 90 days, oral, diet, Sprague-Dawley). Further, the lowest observed adverse effect level (LOAEL) in the series with Mus musculus [2] (setting [17]) turned out to be 148 mg/kg-day; in the series with Rattus norvegicus [4] (short-term, duration: 14 days, oral, diet, Sprague-Dawley), 300 ppm; in the series with Rattus norvegicus [4] (setting [18]), 72 mg/kg-day. In addition, the NOEL was < 17 mg/kg-day in the series with Rattus norvegicus [5] (diet, F, Fischer 344, Deaths + Clinical Observation: Ruffled fur Emacation Pale skin + Body Weight Changes: decrease + Food Consumption: decrease + Hematology: …) and < 24 mg/kg-day in the series with Rattus norvegicus [5] (diet, M/F, Fischer 344, Deaths + Clinical Observation: Ruffled fur Emacation Pale skin + Body Weight Changes: decrease + Food Consumption: decrease + Hematology: …). The LD0 with Canidae [6] is 25 mg/kg; in the series with Cavia porcellus [7], 200 mg/kg; in the series on Oryctolagus sp. [8], > 2000 mg/kg; in the series with Rattus norvegicus [9], 50 mg/kg. In addition, the LD100 with Mus musculus [10] (injection, subcutaneous) was determined as 50 mg/kg; in the series with Mus musculus [10] (oral), 450 mg/kg.
As for `CCOCCOCCO` [2-(2-Ethoxyethoxy)ethanol], the NOAEL in the series with Rattus norvegicus [5] (duration: 60 days, gavage, M, CD(BR), Deaths + Clinical Observation: Bloody urine LethargyProstration PiloerectionUnkempt hair coat Blood around the mouth and nose + Body Weight …) was 1340 mg/kg-day; in the series on Rattus norvegicus [5] (duration: 90 days, diet, M/F, CFE, Body Weight Changes: Terminal body weight decrease% + Food Consumption: decrease% + Urinalysis: Oxalate crystals increase% + Hematology: …), 0.5%; with Sus scrofa, 167 mg/kg-day.
As for `CC(C)C#N` [2-Methylpropanenitrile], the LD50 with Oryctolagus sp. [3] (dermal, occlusive, New Zealand) was 239 mg/kg; with Rattus norvegicus [4] (oral) it was > 50 mg/kg and ≤ 100 mg/kg; with Rattus norvegicus [4] (oral, gavage) it was 77 mg/kg. Moreover, the LC50 in the series on Rattus norvegicus [4] (inhalation, Sprague-Dawley) is > 2830 mg/m3; in the series on Rattus norvegicus [4] (inhalation, albino), ≥ 1410 mg/m3 and ≤ 2830 mg/m3. For the same molecule, the no observed adverse effect level (NOAEL) with Rattus norvegicus [4] (reproduction developmental, duration: 6 days, inhalation, F, Sprague-Dawley) turned out to be 283 mg/m3. For the same molecule, the LC10 in the series on Rattus norvegicus [11] came out at 3320 mg/m3.
For `Cc1ccncc1` [4-Methylpyridine], the LD50 in the series on Oryctolagus sp. [3] (dermal, occlusive, New Zealand) is ≥ 126 mg/kg and ≤ 200 mg/kg. Also, the LD50 in the series with Rattus norvegicus [4] (oral, gavage, Sprague-Dawley) was 841 mg/kg and 700 mg/kg. Besides, in the series with Rattus norvegicus [5] (setting [19]), the LOEL came out at 20 mg/kg-day and the NOEL was determined as 5 mg/kg-day. In addition, the LD40 in the series on Oryctolagus sp. [12] is ≥ 200 mg/kg and ≤ 316 mg/kg.
As for `CNC(=O)Oc1cccc2c1OC(C)(C)C2` [Carbofuran], the LD50 with Oryctolagus sp. [3] (dermal, semiocclusive, New Zealand) was < 2000 mg/kg; in the series with Rattus norvegicus [4] (oral, diet, Sprague-Dawley) it was 5.3 mg/kg and 13.2 mg/kg; in the series with Rattus norvegicus [4] (oral, gavage, Sprague-Dawley), 7 mg/kg and 8.8 mg/kg and 13.3 mg/kg. The NOAEL in the series on Oryctolagus sp. [3] (reproduction developmental, oral, gavage, F, New Zealand) is ≥ 2 mg/kg-day; with Rattus norvegicus [4] (developmental, duration: 14 days, oral, diet, Sprague-Dawley), 160 ppm; in the series on Rattus norvegicus [4] (reproduction developmental, duration: 14 days, oral, diet, F, Sprague-Dawley), 20 ppm; with Rattus norvegicus [4] (reproduction developmental, oral, diet, Crl:CD(SD)), 20 ppm. The LC50 in the series on Rattus norvegicus [4] (inhalation, particle, Sprague-Dawley) turned out to be 0.05 µg/mL (≈ 0.226 µM). For the same molecule, the LEL in the series with Canidae [13] is 12.5 mg/kg-day. The NOEL came to 0.5 mg/kg-day with Canidae [13], 0.3 mg/kg-day with Rattus norvegicus [14] and 0.5 mg/kg-day in the series on Canidae [15]. For the same molecule, the LD40 in the series with Rattus norvegicus [16] worked out at 5.6 mg/kg.

A word on the NOAEL: it is the highest dose or exposure tested at which no adverse effect was seen. The term LOAEL denotes the lowest dose or exposure tested at which an adverse effect was seen.
